Experimental data reported in ChEMBL document CHEMBL1201862, “PubChem BioAssay data set” (2004).
Calls of active or inactive are those of the source.

Assays:
cells = format: functional, cell-based
[1] = target: Lysine-specific demethylase 4A (Homo sapiens, UniProt O75164); test: inhibition of JMJD2A H3K9me3 demethylation – biochemical, DELFIA europium, cherry-picked samples, selectivity assay for GASC-1 inhibitor project, dose response (AID 488840)
[2] = reduction of Shn3 3'UTR-driven luciferase in osteoblasts – cell-based, Clone20 osteoblasts, firefly luciferase, cherry-picked, dose response (AID 624132); format: functional;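 further: firefly luciferase luminescence from reporter carrying the Shn3 3'UTR in osteoblasts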
[3] = microbe, parasite or virus in culture; format: functional; details: Mycobacterium tuberculosis
[4] = blockers of bursicon-stimulated LGR2 cAMP reporter – cell-based, HEK293, CRE-luciferase reporter, cherry pick, set 2, dose response (AID 743343); format: functional;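 further: transfected cells were stimulated with diluted bursicon conditioned medium after compound addition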
Caspase-8 = Caspase-8 (Homo sapiens, UniProt Q14790); test: inhibitors of purified CASP8 protease – biochemical, Z-IETD-R110 fluorescence, cherry-picked samples, selectivity assay for caspase-6 inhibitor project, dose response (AID 743294)
[5] = target: T1, 1-phosphatidylinositol 4,5-bisphosphate phosphodiesterase gamma-1 (Homo sapiens, UniProt P19174); test: Counterscreen for inhibitors of phospholipase C isozymes (PLC-B3): Fluorescence-based biochemical high throughput dose response assay to identify inhibitors of phospholipase C isozymes (PLC-gamma1).
T1 sequence (P19174 whole entry): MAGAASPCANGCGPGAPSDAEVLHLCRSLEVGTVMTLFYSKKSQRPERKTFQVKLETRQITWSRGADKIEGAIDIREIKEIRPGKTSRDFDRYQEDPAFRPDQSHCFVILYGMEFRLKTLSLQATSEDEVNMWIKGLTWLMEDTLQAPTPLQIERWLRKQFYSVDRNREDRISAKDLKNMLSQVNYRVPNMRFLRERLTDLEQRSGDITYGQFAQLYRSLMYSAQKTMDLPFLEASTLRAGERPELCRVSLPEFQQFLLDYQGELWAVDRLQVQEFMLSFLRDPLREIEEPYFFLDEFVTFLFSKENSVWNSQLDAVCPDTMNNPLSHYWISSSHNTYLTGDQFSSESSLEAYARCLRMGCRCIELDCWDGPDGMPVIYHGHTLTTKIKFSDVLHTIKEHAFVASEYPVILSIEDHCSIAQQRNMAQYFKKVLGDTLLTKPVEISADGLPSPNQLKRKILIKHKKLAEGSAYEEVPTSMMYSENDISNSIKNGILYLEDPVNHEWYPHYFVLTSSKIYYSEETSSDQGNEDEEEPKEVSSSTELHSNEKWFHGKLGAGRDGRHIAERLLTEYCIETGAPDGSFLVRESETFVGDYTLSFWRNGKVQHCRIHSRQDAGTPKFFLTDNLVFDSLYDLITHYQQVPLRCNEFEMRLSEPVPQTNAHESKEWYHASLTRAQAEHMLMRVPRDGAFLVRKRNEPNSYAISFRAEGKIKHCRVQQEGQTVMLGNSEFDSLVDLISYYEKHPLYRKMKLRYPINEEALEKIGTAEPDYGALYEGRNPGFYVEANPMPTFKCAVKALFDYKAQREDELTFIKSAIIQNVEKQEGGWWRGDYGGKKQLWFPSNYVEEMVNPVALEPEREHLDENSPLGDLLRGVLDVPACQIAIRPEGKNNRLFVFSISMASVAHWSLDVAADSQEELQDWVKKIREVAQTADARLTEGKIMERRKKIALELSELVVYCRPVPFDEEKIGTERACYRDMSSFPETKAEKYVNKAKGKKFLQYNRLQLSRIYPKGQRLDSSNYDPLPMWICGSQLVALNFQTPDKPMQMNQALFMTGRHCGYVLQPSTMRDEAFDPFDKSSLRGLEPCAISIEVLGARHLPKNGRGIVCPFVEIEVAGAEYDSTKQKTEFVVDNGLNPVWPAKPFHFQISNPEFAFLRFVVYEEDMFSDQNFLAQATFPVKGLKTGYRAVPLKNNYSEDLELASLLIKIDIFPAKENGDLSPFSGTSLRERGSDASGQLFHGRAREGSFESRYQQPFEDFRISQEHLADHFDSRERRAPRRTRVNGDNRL

[6] = target: Sphingosine 1-phosphate receptor 2 (Homo sapiens, UniProt O95136); test: Dose Response Cell Based Assay for Antagonists of the S1P2 Receptor. [Related pubchem assays: 856, 736 ]; format: functional
BJ [7] = test: BJ-TERT-LT-ST fibroblast viability loss – cell-based, RAS-independent, luminescence, dose response (AID 1935); format: functional; details: Homo sapiens;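 further: BJ fibroblasts immortalized with TERT plus LT and ST oncogenes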
BJ [8] = test: growth inhibition of engineered Ras-driven BJ cells – cell-based, alamar blue fluorescence, cherrypicked samples, dose response (AID 2631); format: functional; details: Homo sapiens;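 further: confirmatory dose-response assay in RAS-dependent BJ fibroblasts engineered with TERT, LT and ST, with cytotoxicity read by fluorescence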
Streptokinase A = target: T2, Streptokinase A (Streptococcus pyogenes serotype M1, UniProt P10520); test: viability-normalized secreted streptokinase activity reduction – plasminogen activation absorbance, OD405, dose response (AID 1914); format: functional, Streptococcus pyogenes M1 GAS;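 further: secreted streptokinase activity via plasminogen activation per viability signal from cell pellet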
T2 sequence (P10520 whole entry): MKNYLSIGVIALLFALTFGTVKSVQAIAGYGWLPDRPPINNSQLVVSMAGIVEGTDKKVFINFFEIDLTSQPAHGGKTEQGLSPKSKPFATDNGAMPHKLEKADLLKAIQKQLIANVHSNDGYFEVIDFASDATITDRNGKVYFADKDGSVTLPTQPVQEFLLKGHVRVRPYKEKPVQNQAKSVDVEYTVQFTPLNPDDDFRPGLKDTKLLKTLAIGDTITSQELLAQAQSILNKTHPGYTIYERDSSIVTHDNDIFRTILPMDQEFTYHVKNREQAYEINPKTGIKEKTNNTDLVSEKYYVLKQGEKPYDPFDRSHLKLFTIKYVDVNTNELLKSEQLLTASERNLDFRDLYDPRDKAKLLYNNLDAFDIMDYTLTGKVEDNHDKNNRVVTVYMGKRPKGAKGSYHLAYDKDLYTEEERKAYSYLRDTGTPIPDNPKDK

[9] = general mammalian cell viability loss – activator set, cherry-pick, cytotoxicity control for miR-122 modulator project, dose response (AID 720690); format: functional, cell-based;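 further: HEK293T human cells scored for general mammalian cytotoxicity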

Chain of Lysine-specific demethylase 4A (O75164 whole entry): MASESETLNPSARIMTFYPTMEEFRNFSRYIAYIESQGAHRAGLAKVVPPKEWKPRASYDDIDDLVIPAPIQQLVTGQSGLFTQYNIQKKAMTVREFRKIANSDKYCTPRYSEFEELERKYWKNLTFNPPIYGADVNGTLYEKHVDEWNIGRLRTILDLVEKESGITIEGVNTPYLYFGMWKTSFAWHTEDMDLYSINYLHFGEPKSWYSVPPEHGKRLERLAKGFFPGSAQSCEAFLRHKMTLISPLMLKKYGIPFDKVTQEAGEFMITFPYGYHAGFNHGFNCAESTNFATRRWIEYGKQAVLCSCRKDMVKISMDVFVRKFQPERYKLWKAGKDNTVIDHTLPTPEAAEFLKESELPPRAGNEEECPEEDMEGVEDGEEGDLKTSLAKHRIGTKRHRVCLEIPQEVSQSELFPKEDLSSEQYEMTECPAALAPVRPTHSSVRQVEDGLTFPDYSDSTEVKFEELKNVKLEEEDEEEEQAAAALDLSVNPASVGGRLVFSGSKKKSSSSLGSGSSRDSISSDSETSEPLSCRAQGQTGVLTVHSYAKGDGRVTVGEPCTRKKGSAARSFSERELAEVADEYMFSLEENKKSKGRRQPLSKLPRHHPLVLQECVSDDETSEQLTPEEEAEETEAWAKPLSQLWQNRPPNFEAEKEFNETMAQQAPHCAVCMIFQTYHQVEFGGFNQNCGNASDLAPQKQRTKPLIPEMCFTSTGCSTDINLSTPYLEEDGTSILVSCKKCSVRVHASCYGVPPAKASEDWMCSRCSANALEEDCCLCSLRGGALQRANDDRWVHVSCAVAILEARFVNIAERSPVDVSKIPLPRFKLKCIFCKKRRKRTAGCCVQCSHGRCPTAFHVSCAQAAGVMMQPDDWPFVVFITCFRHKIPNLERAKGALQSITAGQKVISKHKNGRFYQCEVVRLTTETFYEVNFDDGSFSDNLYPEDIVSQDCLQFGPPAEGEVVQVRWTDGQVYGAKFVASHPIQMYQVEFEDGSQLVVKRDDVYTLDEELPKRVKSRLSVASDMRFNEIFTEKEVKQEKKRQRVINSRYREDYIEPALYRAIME
Chain of Sphingosine 1-phosphate receptor 2 (O95136 whole entry): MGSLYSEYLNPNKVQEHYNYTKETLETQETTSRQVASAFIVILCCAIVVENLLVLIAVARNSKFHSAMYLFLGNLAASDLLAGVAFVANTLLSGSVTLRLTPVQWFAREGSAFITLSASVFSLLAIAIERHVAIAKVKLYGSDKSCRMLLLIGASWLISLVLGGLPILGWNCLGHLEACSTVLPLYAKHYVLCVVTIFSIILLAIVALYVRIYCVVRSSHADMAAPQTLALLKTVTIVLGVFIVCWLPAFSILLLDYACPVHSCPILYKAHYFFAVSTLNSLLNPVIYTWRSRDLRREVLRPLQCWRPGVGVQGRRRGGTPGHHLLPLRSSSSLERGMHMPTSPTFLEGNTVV
Chain of Caspase-8 (Q14790 217-374 limits assumed): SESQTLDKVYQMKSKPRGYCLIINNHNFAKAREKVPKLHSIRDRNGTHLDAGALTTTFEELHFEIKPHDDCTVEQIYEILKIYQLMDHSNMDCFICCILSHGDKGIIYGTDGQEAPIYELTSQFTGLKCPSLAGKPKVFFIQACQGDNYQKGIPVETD
Chain of Caspase-8 (Q14790 385-479 limits assumed): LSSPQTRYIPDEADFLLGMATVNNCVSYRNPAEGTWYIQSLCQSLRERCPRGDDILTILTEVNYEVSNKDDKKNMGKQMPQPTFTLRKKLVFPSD

For CCC(=O)NC(c1ccc(OC)cc1)c1cc(Cl)c2cccnc2c1O (configuration not stated), the EC50 (cells) was 19 µM (active).
With Cn1nc(-c2ccccn2)nc2c(=O)n(C)c(=O)nc1-2 the AC50 [1] was 5.1 µM (active), the AC50 [2] was 0.493 µM (active) and the CC50 [3] was > 40 µM (active). For the same compound, the AC50 [4] was 2.57 µM (active), the AC50 (Caspase-8) was 0.436 µM (active) and the IC50 [5] was > 4.54 µM (active).
With CCCCCCCCCCn1c2c(c(=N)c3c1CCC3)CCC2 the IC50 [6] was 2.94 µM (active), the EC50 (BJ [7]) was 5.73 µM (inconclusive) and the EC50 (BJ [8]) was 0.706 µM (active). The EC50 (Streptokinase A) was 4.86 µM (active) and the AC50 [9] was 6.56 µM (active).
